According to patent US20210077559A1, “Treating Autoimmune Disorders with Acetylcholinesterase Inhibitors” (priority 2018, published 2021):

Experiments:
[1] = tested on: Demodex mites; assay: In vitro Demodex survival time assay; conditions: in vitro assay (FIG. 3 and 4)
Method: FIG. 4 summarizes the activity of 10% chloroquine in water relative to a water control on activity against Demodex mites in an in vitro assay, with an LT50 of 31.6 hours for chloroquine compared to 44.8 hours for the water control, illustrating the inactivation effect of chloroquine on Demodex.
Example 4: In vitro efficacy and mite lifetimes: Relative efficacy of various formulations are evaluated with a Demodex survival time experiments. FIG. 3 tabulates Demodex survival time, expressed in terms of LT50 (time at which 50% of Demodex mites are killed) and/or average minutes to death for various active agents.

[2] = tested on: Demodex mites; conditions: dichlorvos 1%, one patient; PCT Pub. No. WO 2015/017328; cited from earlier work

Row | Compound | activity against Demodex mites [1] | remission of Papulopostular Rosacea (PPR) [2]
1 | CCN(CC)CCCC(C)Nc1ccnc2cc(Cl)ccc12 (centres unmarked) [chloroquine] | has activity against Demodex mites | –
2 | COP(=O)(OC)OC=C(Cl)Cl [dichlorvos] | – | complete and continued remission
